Like-named read-outs stand apart in the source and are kept apart here.

Test [1] deals with T1, HCV polymerase 1B (Δ21 NS5B, BK) (Hepatitis C virus genotype 1b, UniProt P26663).
T1 construct: 20 to 50 nM Δ21 NS5B
Nature of the test: biochemical. The essentials: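 Δ21 NS5B (genotype 1b, BK […]) preincubated 15 min RT with inhibitor, 2 mM MnCl2, pH 7.4, 60–125 μM GTP; started with 20 μM CTP/ATP, 1 μM 3H-UTP, 5 nM template RNA, run 2–4 h RT. Spermine-precipitated RNA filter-captured, scintillation counted; IC50 from tight-binding (Morrison) fit.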

The subject of test [2] is genotype 1a-H77 subgenomic replicon cell line. As to the kind of experiment: microbe, parasite or virus in culture. The format is cell-based, HCV. The conditions noted are these: read-out: EC50 1a.
Test [3] deals with genotype 1b-Con1 subgenomic replicon cell line. As to the kind of experiment: microbe, parasite or virus in culture. It is filed as cell-based, HCV. The note with it: read-out: EC50 1b.
The target of test [4] is T2, HCV polymerase 1A (Δ21 NS5B, H77) (Hepatitis C virus genotype 1a, UniProt P27958).
T2 construct: 20 to 50 nM Δ21 NS5B
T2 sequence (P27958 2421-2990, stated change not applied): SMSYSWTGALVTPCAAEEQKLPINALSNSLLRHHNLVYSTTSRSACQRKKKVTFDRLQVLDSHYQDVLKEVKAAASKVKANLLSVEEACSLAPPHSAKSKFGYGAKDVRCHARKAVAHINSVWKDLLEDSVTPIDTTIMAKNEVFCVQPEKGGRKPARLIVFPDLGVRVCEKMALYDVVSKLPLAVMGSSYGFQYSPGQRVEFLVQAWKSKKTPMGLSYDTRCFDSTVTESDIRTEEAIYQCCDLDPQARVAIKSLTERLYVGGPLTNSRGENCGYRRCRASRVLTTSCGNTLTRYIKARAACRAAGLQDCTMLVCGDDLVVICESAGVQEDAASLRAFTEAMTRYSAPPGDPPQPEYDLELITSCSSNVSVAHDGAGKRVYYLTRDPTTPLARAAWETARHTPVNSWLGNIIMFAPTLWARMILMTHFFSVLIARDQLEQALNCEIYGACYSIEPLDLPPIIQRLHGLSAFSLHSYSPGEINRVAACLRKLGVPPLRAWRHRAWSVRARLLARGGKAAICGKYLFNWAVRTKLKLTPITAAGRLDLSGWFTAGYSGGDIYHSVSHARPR
As to the kind of experiment: biochemical. The essentials:
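Radiometric assay with Δ21 NS5B (H77): 20 μM CTP, 20 μM ATP, 1 μM ^3H-UTP, 5 nM template RNA, 2–4 h at room temperature. RNA precipitated with spermine, filter-captured and counted. IC50 from non-linear fit of retained cpm vs inhibitor concentration (tight-binding equation).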

T1 sequence (P26663 2420-2989, stated change not applied): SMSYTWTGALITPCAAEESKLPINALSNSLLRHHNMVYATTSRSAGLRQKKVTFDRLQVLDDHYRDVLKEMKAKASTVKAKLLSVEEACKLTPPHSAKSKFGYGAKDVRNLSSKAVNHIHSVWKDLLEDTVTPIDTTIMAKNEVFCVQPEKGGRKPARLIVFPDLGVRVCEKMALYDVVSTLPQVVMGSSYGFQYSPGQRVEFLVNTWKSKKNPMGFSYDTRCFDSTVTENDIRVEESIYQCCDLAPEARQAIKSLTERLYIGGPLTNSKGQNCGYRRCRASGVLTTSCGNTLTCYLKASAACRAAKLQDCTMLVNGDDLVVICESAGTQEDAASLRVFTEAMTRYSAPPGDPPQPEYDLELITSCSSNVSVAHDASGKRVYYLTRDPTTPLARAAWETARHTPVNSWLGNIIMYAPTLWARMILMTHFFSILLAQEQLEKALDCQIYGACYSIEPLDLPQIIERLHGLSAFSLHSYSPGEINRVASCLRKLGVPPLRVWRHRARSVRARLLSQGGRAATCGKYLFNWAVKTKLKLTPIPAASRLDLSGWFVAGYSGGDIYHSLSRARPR

With `COc1c(C(=O)Nc2ccc(NS(=O)(=O)CC(C)C)cc2)cc(N2CCC(=O)NC2=O)cc1C(C)(C)C` [IA-L3-1.52, 3-tert-butyl-5-(2,4-dioxotetrahydropyrimidin-1(2H)-yl)-2-methoxy-N-(4-(2-methylpropyl-sulfonamido)phenyl)benzamide], the IC50 in test [1] and in test [4] (IC50 1a) was 100 to 1000 nM each time. Also, the EC50 in test [2] (Hepatitis C virus) was > 1000 nM; in test [3] (Hepatitis C virus), 100 to 1000 nM.

For the compound `COc1c(C#Cc2ccc(NS(C)(=O)=O)cc2C)cc(N2CCC(=O)NC2=O)cc1C(C)(C)C` [IA-L2-1.9, N-(4-((3-tert-butyl-5-(2,4-dioxotetrahydropyrimidin-1(2H)-yl)-2-methoxyphenyl)ethynyl)-3-methylphenyl)methanesulfonamide], the IC50 in test [1] and in test [4] (IC50 1a) was < 10 nM in each case. For the same compound, the EC50 in test [2] (Hepatitis C virus) and in test [3] (Hepatitis C virus) was < 10 nM throughout.

With `COc1c(CC(=O)c2ccc(NS(C)(=O)=O)cc2)cc(N2CCC(=O)NC2=O)cc1C(C)(C)C` [IA-L12-1.1, N-(4-(2-(3-tert-butyl-5-(2,4-dioxotetrahydropyrimidin-1(2H)-yl)-2-methoxyphenyl)acetyl)phenyl)methanesulfonamide], the IC50 in test [1] and in test [4] (IC50 1a) was 10 to 100 nM in each case. Also, the values for the EC50 in test [2] (Hepatitis C virus) and in test [3] (Hepatitis C virus) were 100 to 1000 nM and 10 to 100 nM, respectively.

Regarding `CCc1cc(NS(C)(=O)=O)ccc1C#Cc1cc(N2CCC(=O)NC2=O)cc(C(C)(C)C)c1OC` [IA-L2-1.11, N-(4-((3-tert-butyl-5-(2,4-dioxotetrahydropyrimidin-1(2H)-yl)-2-methoxyphenyl)ethynyl)-3-ethylphenyl)methanesulfonamide], the results for the IC50 in test [1] and in test [4] (IC50 1a) were 10 to 100 nM and < 10 nM, respectively. In addition, the EC50 in test [2] (Hepatitis C virus) and in test [3] (Hepatitis C virus) was < 10 nM in each case.

Regarding `Cc1cc(NS(C)(=O)=O)ccc1C#Cc1cc(N2CCC(=O)NC2=O)cc(C(C)(C)C)c1` [IA-L2-1.2, N-(4-((3-tert-butyl-5-(2,4-dioxotetrahydropyrimidin-1(2H)-yl)phenyl)ethynyl)-3-methyl-phenyl)methanesulfonamide], the IC50 in test [1] and in test [4] (IC50 1a) was < 10 nM in each case. The EC50 in test [2] (Hepatitis C virus) and in test [3] (Hepatitis C virus) was 10 to 100 nM each time.

Consider `COc1c(C#Cc2ccc(NS(C)(=O)=O)cc2F)cc(N2CCC(=O)NC2=O)cc1C(C)(C)C` [IA-L2-1.12, N-(4-((3-tert-butyl-5-(2,4-dioxotetrahydropyrimidin-1(2H)-yl)-2-methoxyphenyl)ethynyl)-3-fluorophenyl)methanesulfonamide], for which the IC50 in test [1] and in test [4] (IC50 1a) was < 10 nM in each case. Besides, the EC50 in test [2] (Hepatitis C virus) is 10 to 100 nM; in test [3] (Hepatitis C virus), < 10 nM.

Regarding `COc1c(C(=O)N[C@H]2CC[C@H](NS(C)(=O)=O)CC2)cc(N2CCC(=O)NC2=O)cc1C(C)(C)C` [IA-L3-1.103, 3-tert-butyl-5-(2,4-dioxotetrahydropyrimidin-1(2H)-yl)-2-methoxy-N-((1r,4r)-4-(methylsulfon amido)cyclohexyl)benzamide], the IC50 is > 1000 nM in test [1] (HCV polymerase 1b, read-out: IC50 1b) and 100 to 1000 nM in test [4] (read-out: IC50 1a). The EC50 is > 1000 nM in test [2] (genotype 1a-H77 replicon, luciferase reporter) and > 1000 nM in test [3] (genotype 1b-Con1 replicon, luciferase reporter).

In the case of `CC(C)(C)c1cc(NC(=O)c2ccc(NS(C)(=O)=O)cc2)cc(N2CCC(=O)NC2=O)c1` [IA-L4-1.1, N-(3-tert-butyl-5-(2,4-dioxotetrahydropyrimidin-1(2H)-yl)phenyl)-4-(methylsulfonamido) benzamide], the IC50 in test [1] and in test [4] (IC50 1a) was 100 to 1000 nM in each case. For the same compound, the EC50 in test [2] (Hepatitis C virus) and in test [3] (Hepatitis C virus) was > 1000 nM each time.

For the compound `CC(C)(C)c1cc(N2CCC(=O)NC2=O)cc(C(=O)Nc2ccc(OS(C)(=O)=O)cc2)c1O` [IA-L3-1.19, 4-(3-tert-butyl-5-(2,4-dioxotetrahydropyrimidin-1(2H)-yl)-2-hydroxybenzamido)phenyl methanesulfonate], the values for the IC50 in test [1] and in test [4] (IC50 1a) were 10 to 100 nM and 100 to 1000 nM, respectively. In addition, the EC50 in test [2] (Hepatitis C virus) and in test [3] (Hepatitis C virus) was > 1000 nM in each case.

For the compound `CC(C)CS(=O)(=O)Nc1ccc(NC(=O)c2cc(N3CCC(=O)NC3=O)cc(C(C)(C)C)c2O)cc1` [IA-L3-1.7, 3-tert-butyl-5-(2,4-dioxotetrahydropyrimidin-1(2H)-yl)-2-hydroxy-N-(4-(2-methylpropylsulfonamido)phenyl)benzamide], the figures for the IC50 in test [1] and in test [4] (IC50 1a) were 10 to 100 nM and 100 to 1000 nM, respectively. The EC50 in test [2] (Hepatitis C virus) and in test [3] (Hepatitis C virus) was > 1000 nM throughout.

On to `COc1c(-c2ccc3cc(CNS(C)(=O)=O)sc3c2)cc(-n2ccc(=O)[nH]c2=O)cc1C(C)(C)C` [IB-L0-2.40, N-((6-(3-tert-butyl-5-(2,4-dioxo-3,4-dihydropyrimidin-1(2H)-yl)-2-methoxyphenyl)benzo[b]thiophen-2-yl)methyl)methanesulfonamide], for which the IC50 in test [1] and in test [4] (IC50 1a) was 100 to 1000 nM each time. Also, the values for the EC50 in test [2] (Hepatitis C virus) and in test [3] (Hepatitis C virus) were > 1000 nM and 100 to 1000 nM, respectively.

Regarding `COc1c(-c2ccc3c(c2)CCC3(F)CNS(C)(=O)=O)cc(-n2ccc(=O)[nH]c2=O)cc1C(C)(C)C` (stereo not shown) [IB-L0-2.12, N-((5-(3-tert-butyl-5-(2,4-dioxo-3,4-dihydropyrimidin-1(2H)-yl)-2-methoxyphenyl)-1-fluoro-2,3-dihydro-1H-inden-1-yl)methyl)methanesulfonamide], the IC50 in test [1] was 10 to 100 nM; in test [4] (IC50 1a), < 10 nM. The EC50 is 10 to 100 nM in test [2] (Hepatitis C virus) and < 10 nM in test [3] (Hepatitis C virus).

Take `COc1c(C#Cc2ccc(NS(C)(=O)=O)cc2C)cc(-n2ccc(=O)[nH]c2=O)cc1C(C)(C)C` [IB-L2-1.1, N-(4-((3-tert-butyl-5-(2,4-dioxo-3,4-dihydropyrimidin-1(2H)-yl)-2-methoxyphenyl)ethynyl)-3-methylphenyl)methanesulfonamide]: the IC50 in test [1] is 10 to 100 nM; in test [4] (IC50 1a) it was < 10 nM. In addition, the EC50 in test [2] (Hepatitis C virus) and in test [3] (Hepatitis C virus) was < 10 nM each time.

In the case of `COc1c(C(=O)Nc2ccc3c(c2)CC(=O)N3)cc(N2CCC(=O)NC2=O)cc1C(C)(C)C` [IA-L3-2.2, 3-tert-butyl-5-(2,4-dioxotetrahydropyrimidin-1(2H)-yl)-2-methoxy-N-(2-oxoindolin-5-yl)benzamide], the IC50 in test [1] and in test [4] (IC50 1a) was 100 to 1000 nM throughout. Also, the EC50 in test [2] (Hepatitis C virus) and in test [3] (Hepatitis C virus) was > 1000 nM throughout.

As to `COc1c(C#Cc2ccc(NS(C)(=O)=O)cc2)cc(N2CCC(=O)NC2=O)cc1C1CC1` [IA-L2-1.23, N-(4-((3-cyclopropyl-5-(2,4-dioxotetrahydropyrimidin-1(2H)-yl)-2-methoxyphenyl)ethynyl)phenyl)methanesulfonamide], the IC50 in test [1] and in test [4] (IC50 1a) was 100 to 1000 nM each time. Further, the EC50 in test [2] (Hepatitis C virus) is > 1000 nM; in test [3] (Hepatitis C virus) it was 100 to 1000 nM.

As to `CC(C)(C)c1cc(C#Cc2ccc(NS(C)(=O)=O)cc2)cc(N2CCC(=O)NC2=O)c1` [IA-L2-1.1, N-(4-((3-tert-butyl-5-(2,4-dioxotetrahydropyrimidin-1(2H)-yl)phenyl)ethynyl)phenyl)-methanesulfonamide], the IC50 was < 10 nM in test [1] and 10 to 100 nM in test [4] (IC50 1a). The values for the EC50 in test [2] (Hepatitis C virus) and in test [3] (Hepatitis C virus) were 100 to 1000 nM and 10 to 100 nM, respectively.

Broadly, the IC50 is the concentration that inhibits the measured activity by half. The EC50 is the concentration that produces a half-maximal response.

These data come from patent US8415351B2 (priority 2007, dated 2013).
